# Reference: PMC2409900 (British Journal of Cancer, 2004)
# Values joined by “and” are separate entries in the source; they are usually repeats but may differ in a detail not shown here. Identical values can stand only once.
# How the values were obtained:
# rat RBCs = assay: Ex vivo uptake of 667 COUMATE / 667 COUMARIN by RBCs in whole blood; assay type: in vitro ADME
# Procedure: (§1) Whole blood was removed from female Wistar rats, pooled, centrifuged (2800 g, 4°C, 15 min) and separated into RBCs and plasma. […] 667 COUMATE was also incubated with plasma only. Duplicate samples were maintained at 37°C for 0.5, 1, 3 and 24 h on rollers. Whole blood was acidified by addition of 1 M (pH 3) citrate buffer (9 : 1, v v^−1). […] Plasma was separated from other blood constituents by centrifugation (2800 g, 4°C, 15 min) and the radioactivity was counted.
# (§2) The coefficients of variation (interday and intraday) were <10%.
# [1] = Stability of 667 COUMATE in vehicle; assay type: physicochemical; conditions: HPLC
# [2] = Pharmacokinetic study: plasma levels after single i.v. or p.o. dose; conditions: for half-life: t1/2β
# Procedure: Female Wistar (155–165 g) rats were purchased from Charles River UK Ltd (Margate, Kent, UK) and housed in a dedicated animal facility. Rats received RM1 rodent maintenance diet (SDS, Kent, UK), water ad libitum and were maintained in positive pressure isolators under a 12 h light–dark cycle. These experiments were approved by the Imperial College Ethical Review Committee and met the standards required by the UKCCCR guidelines ([Workman et al, 1998]). […] Three rats were used for each time point. Rats were subjected to terminal anaesthesia (halothane) and blood was removed by cardiac puncture at 2.5, 5, 15, 30 and 45 min and 1, 3, 8, 16 and 24 h after i.v. administration. […] Plasma and RBCs were prepared from whole blood by centrifugation (2800 g, 4°C, 15 min). […] 7-Hydroxycoumarin (3 μg ml^−1) was used as an internal standard. The organic phase was decanted to a fresh tube and evaporated to dryness under a stream of air at room temperature. […] Briefly, RBCs were mixed with blank plasma (1 : 1, v v^−1) and mixed by inversion in order to reconstitute ‘whole blood’. 7-Hydroxycoumarin (3 μg ml^−1) was added to the whole blood (500 μl). […] Samples were thawed, vortexed for a further 5 min, centrifuged (15 000 g, 15 min) and the supernatant was removed and filtered ([…], acrodisc CR PTFE). The diethyl ether was removed under a stream of air. […] The residues were stored at −20°C in preparation for HPLC analysis.
# Pharmacokinetic parameters were calculated using WinNonlin software (Pharsight Corporation, Mountview, CA, USA). The area under the curve (AUC) was calculated using the linear trapezoidal method with extrapolation of the terminal phase to infinity. Other parameters calculated were as follows: elimination rate constant (β); total body clearance (Cl)=dose/AUC; volume of distribution (Vd)=Cl/β; elimination half-life (t1/2β)=0.693/β; bioavailability (%F)=(AUCoral/AUCi.v.) × 100.
# STS = system: STS; parameters: method as in Ireson et al, 2003; conditions: ref Ireson et al, 2003; cited from earlier work
# [3] = system: E1S-stimulated nitrosomethylurea-induced mammary tumours; conditions: cited from earlier work
# rat liver STS = conditions: cited from earlier work
# [4] = Ex vivo stability in plasma and whole blood (667 COUMATE/667 COUMARIN ratio); assay type: in vitro ADME, rat
# Procedure: as §1, with “Duplicate samples were maintained at 37°C for 0.5, 1, 3 and 24 h on rollers.” left out
# as §2
# [5] = parameters: method as in Ireson et al, 2003; conditions: by 4 h; ref Ireson et al, 2003; cited from earlier work
# [6] = In vivo uptake into RBCs after single p.o. or i.v. dose; conditions: female, Wistar, 10 mg kg^−1, rat
# Text: Three rats were used for each time point.
# as §2
# [7] = female, Wistar, rat, in vivo, iv, 10 mg/kg
# [8] = female, Wistar, rat, in vivo, po, 10 mg/kg
smiles,measurement,setting,value
"O=c1oc2cc(O)ccc2c2c1CCCCC2 [667 COUMARIN, 3-Hydroxy-6-oxo-8,9,10,11-tetrahydro-7H-cyclohepta-[c] [1] benzopyran]",effect of acetazolamide preincubation on uptake into RBCs,rat RBCs; whole rat blood preincubated with acetazolamide (100 μM),did not affect this uptake
same,uptake into RBCs,"rat RBCs; whole rat blood, 667 COUMARIN 10 μg ml^−1, no acetazolamide",50%
same,level of degradation product 667 COUMARIN in vehicle,[1]; 667 COUMATE in vehicle on ice for up to 6 h,below the limit of detection
same,formation as metabolite of 667 COUMATE in vivo,[2]; rat plasma after i.v. or p.o. 667 COUMATE,only a minor metabolic product
same,STS inhibitory activity,STS,devoid of any STS inhibitory activity
"NS(=O)(=O)Oc1ccc2c3c(c(=O)oc2c1)CCCCC3 [667 COUMATE, 6-oxo-8,9,10,11-tetrahydro-7H-cyclohepta-[c] [1] benzopyran-3-O-sulphamate]",inhibition of STS activity in mammary tumours,"[3]; nitrosomethylurea-induced mammary tumours in rats, ref Purohit et al, 2000",almost completely inhibit STS activity
same,growth of E1S-stimulated tumours,"[3]; nitrosomethylurea-induced rat mammary model, ref Purohit et al, 2000, 2001",causes a reduction in the growth
same,inhibition of rat liver STS,"rat liver STS; 10 mg kg^−1, ref Purohit et al, 2000, 2001",93%
same,duration of STS inhibition in vivo after a single dose,"rat liver STS; rat, hepatic STS, ref Purohit et al, 2001",up to 24 h
same,percentage of agent retained by the RBCs,rat RBCs; 24 h after addition to whole rat blood,48%
same,percentage of agent taken up by RBCs (two independent analytical methods),rat RBCs; added to rat whole blood ex vivo,more than 70%
same,uptake into RBCs after preincubation with acetazolamide,rat RBCs; whole rat blood preincubated 30 min with acetazolamide (100 μM),50%
same,percentage of agent associated with the RBC fraction,"rat RBCs; whole rat blood, 30 min incubation, 37°C, 10 μg ml^−1, HPLC",more than 80%
same,stability in vehicle,"[1]; THF : PEG-400 : water 1:6:3, on ice for up to 6 h",stable
same,parent compound remaining in plasma,"[4]; plasma, 3 h incubation",below the limit of detection
same,parent compound remaining in whole blood,"[4]; whole blood, after 48 h incubation",could still be detected
same,percentage of agent removed on incubation with plasma,[5],80%
same,Cl,"[2]; 10 mg kg^−1 bolus i.v., rat, Cl=dose/AUC",53.5 ± 2.6 mL/h
same,t1/2β,"[2]; 10 mg kg^−1 p.o., rat plasma",1.97 ± 0.3 h
same,Cl,"[2]; 10 mg kg^−1 p.o., rat, Cl=dose/AUC",54 mL/h and 54.2 ± 2.4 mL/h
same,Vd,"[2]; 10 mg kg^−1 p.o., rat, Vd=Cl/β",153.2 ± 18.7 mL/kg
same,concentration at 8 h,"[2]; female, Wistar, rat, in vivo, 10 mg kg^−1",> 100 ng/mL
same,bioavailability,"[2]; female, Wistar, rat, in vivo, 10 mg kg^−1, %F (bioavailability), 10 mg kg^−1 p.o. vs i.v., rat, (AUCoral/AUCi.v.) × 100",95%
same,AUC,[2]; [7],35800 ± 1300 ng·h/mL
same,Cmax,[2]; [7],22800 ± 600 ng/mL
same,Vd,[2]; [7],93.9 ± 2.9 mL/kg
same,k el,[2]; [7],0.000167 s⁻¹
same,clearance,"[2]; female, Wistar, rat, in vivo, iv, 10 mg/kg, Cl, 10 mg kg^−1 bolus i.v., Cl=dose/AUC",0.883 mL/min
same,half-life,"[2]; female, Wistar, rat, in vivo, iv, 10 mg/kg, 10 mg kg^−1 bolus i.v., rat plasma",72 ± 6 min
same,AUC,[2]; [8],34400 ± 1100 ng·h/mL
same,Cmax,[2]; [8],11900 ± 400 ng/mL
same,k el,[2]; [8],8.33e-05 s⁻¹
same,half-life,"[2]; female, Wistar, rat, in vivo, po, 10 mg/kg, 10 mg kg^−1 p.o., rat plasma",120 min
same,time at which maximum level in plasma was attained,"[2]; oral dosing 10 mg kg^−1, rat",30 min
same,time for which 667 COUMATE could be detected in plasma,"[2]; single 10 mg kg^−1 i.v. or p.o. dose, rat",up to 8 h
same,concentration at 30 min,"[6]; iv, 30 min after i.v. administration",19000 ng/mL
same,concentration at 30 min,"[6]; po, 30 min after p.o. administration",12000 ng/mL
